SMILES strings stand for the structures. Where two headings read alike, the source gives them in different places.

For data set [1], the target named is T1, human Arginine Vasopressin Receptor 1a (AVPR1a) (Homo sapiens, UniProt P37288).
T1 construct: expressed in transfected cells; host or cells: CHO (Chinese Hamster Ovary) cells, kept under G418 selection
The data set can be described thus: Vasopressin V1a receptor antagonist assay (FLIPR calcium, CHO-AVPR1a cells). It is filed as cell-based.
Description: The purpose of this assay is to determine the inhibitory effect of synthesized compounds on the Vasopressin V1a receptor. The assay is performed in Chinese Hamster Ovary (CHO) cells expressing the human Arginine Vasopressin Receptor 1a (AVPR1a). Arginine Vasopressin (AVP) evokes an increase in intracellular calcium in CHO-AVPR1a cells which is measured in a fluorescence assay on the FLIPR^TETRA using calcium sensitive dyes. Test compounds are assessed for their ability to affect the magnitude of the response to AVP, with antagonists showing a concentration-dependent reduction in the AVP-mediated fluorescence. Compounds are tested in duplicate in a 10-point, 1:3 dilution series starting at a nominal concentration of 3 μM in the assay. […]
On day one, cells are harvested from T175 flasks when they are 80-90% confluent by first washing the cell monolayer with PBS and then dissociated using trypsin 0.05%/EDTA (3 mL for a T175 Flask). […] To the cell suspension, 10 ml of growth media is added and the cell density determined using the Vi-Cell automated cell counter. […]
At the start of each assay day, the potency of AVP is assessed and an EC80 concentration determined for subsequent compound profiling. […] At the end of the incubation period, 10 μl of AVP in assay buffer containing 0.1% BSA is added at the previously determined EC80 concentration.

The test system of data set [2] is MDR1 (P-glycoprotein). The data set can be described thus: in vitro. The note with it: dog, MDCK-MDR1.
For data set [3], the target named is T2, human Arginine Vasopressin Receptor V2 (AVPR2) (Homo sapiens, UniProt P30518).
T2 construct: host or cells: 1321N1 cells (cAMPZen V2 assay ready cells)
T2 sequence (P30518 whole entry): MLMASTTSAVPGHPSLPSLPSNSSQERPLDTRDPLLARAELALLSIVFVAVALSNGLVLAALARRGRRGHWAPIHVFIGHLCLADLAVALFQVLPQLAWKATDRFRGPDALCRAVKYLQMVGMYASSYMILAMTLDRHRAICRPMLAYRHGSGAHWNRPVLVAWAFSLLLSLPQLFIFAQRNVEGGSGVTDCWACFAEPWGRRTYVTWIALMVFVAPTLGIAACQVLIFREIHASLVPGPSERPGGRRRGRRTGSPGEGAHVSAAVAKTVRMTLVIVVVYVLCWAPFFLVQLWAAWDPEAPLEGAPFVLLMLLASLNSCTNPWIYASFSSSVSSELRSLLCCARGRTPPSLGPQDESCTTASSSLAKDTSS
Description: Vasopressin V2 receptor antagonist assay (TR-FRET cAMP, 1321N1 cells). It is filed as cell-based.
Description: The purpose of the assay is to determine the inhibitory effect of synthesized compounds on the Vasopressin receptor 2. […] Arginine Vasopressin (AVP) evokes an increase in intracellular cAMP in these cells which is measured in a TR-FRET assay using a Europium cAMP tracer and ULight labelled antibody reagents contained in a LANCE Ultra cAMP kit (Perkin Elmer #TRF0263). […] Test compounds are assessed for their ability to affect the magnitude of the response to AVP, with antagonists showing a concentration-dependent decrease in the AVP-mediated reduction in TR-FRET signal.
cAMPZen V2 assay ready cells are thawed at 37° C. and resuspended directly from frozen in 9 ml growth medium consisting of DMEM supplemented with 10% v/v fetal bovine serum, 1× non-essential amino acids, and 1 mM sodium pyruvate. […] The pellet is resuspended in 5 ml stimulation buffer and the cell density determined using the Vi-Cell automated cell counter. The cell suspension is diluted to a 0.2×10^6/ml suspension ready for plating. […]
At the start of each assay day the potency of AVP is assessed and an EC80 concentration determined for subsequent compound profiling. […] After a one hour incubation, plates are ready to be read (signals then remained stable for up to 24 hours). […] At the end of the incubation period, 2.5 μl of AVP in stimulation buffer is added at the previously determined EC80 concentration.

For data set [4], the target named is T3, human Oxytocin Receptor (hOTR) (Homo sapiens, UniProt P30559).
T3 construct: host or cells: CHEM-1 cells (ready-to-assay frozen cells)
T3 sequence (P30559 1-389): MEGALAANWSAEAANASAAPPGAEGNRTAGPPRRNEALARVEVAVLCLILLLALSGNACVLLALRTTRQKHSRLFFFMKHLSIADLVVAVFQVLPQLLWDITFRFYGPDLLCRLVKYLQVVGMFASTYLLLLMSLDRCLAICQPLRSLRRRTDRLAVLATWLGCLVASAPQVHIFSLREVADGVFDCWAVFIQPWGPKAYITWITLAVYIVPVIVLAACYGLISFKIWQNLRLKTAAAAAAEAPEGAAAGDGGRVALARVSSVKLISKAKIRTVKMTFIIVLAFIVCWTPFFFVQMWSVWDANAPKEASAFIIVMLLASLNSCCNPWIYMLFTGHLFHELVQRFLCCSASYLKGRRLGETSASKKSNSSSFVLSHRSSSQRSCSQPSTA
The data set can be described thus: Oxytocin receptor antagonist assay (FLIPR calcium, CHEM-1-hOTR cells). It is filed as cell-based. The note with it: antagonism of oxytocin (EC80) response; read-out: OT IC50. How it is done: This assay is performed in CHEM-1 cells expressing the human Oxytocin Receptor (hOTR) to determine the inhibitory effect of the compounds of the invention on the human Oxytocin receptor. Oxytocin evokes an increase in intracellular calcium in CHEM-1-hOTR cells which is measured in a fluorescence assay on the FLIPR^TETRA using calcium sensitive dyes. Test compounds are assessed for their ability to affect the magnitude of the response to oxytocin, with antagonists showing a concentration-dependent reduction in the oxytocin-mediated fluorescence.
CHEM-1-hOTR ready is used to assay frozen cells (Eurofins #HTS090RTA) which are supplied with a proprietary Media Component.
Day 1 of the assay: Cells are thawed in a 37° C. water bath and diluted with the supplied Media Component to a final volume of 10 ml. The cell suspension is centrifuged at 1000 rpm for 3 min at room temperature and the supernatant is discarded. […]
Day 2: At the start of each assay day the potency of oxytocin is assessed and an EC80 concentration is determined for subsequent compound profiling. […] Changes in fluorescence are monitored for 3 min after both additions on the FLIPR^TETRA using 470-495 nm excitation and 515-575 nm emission wavelengths. […] At the end of the incubation period 10 μl of oxytocin in assay buffer containing 0.1% BSA is added at the previously determined EC80 concentration. […]

Data set [5] in a line: in vitro. The following applies: dog, MDCK.
In data set [6] the target is T4, human Arginine Vasopressin Receptor 1b (AVPR1b) (Homo sapiens, UniProt P47901).
T4 construct: expressed in transfected cells; host or cells: CHO (Chinese Hamster Ovary) cells, kept under G418 selection
T4 sequence (P47901 1-424): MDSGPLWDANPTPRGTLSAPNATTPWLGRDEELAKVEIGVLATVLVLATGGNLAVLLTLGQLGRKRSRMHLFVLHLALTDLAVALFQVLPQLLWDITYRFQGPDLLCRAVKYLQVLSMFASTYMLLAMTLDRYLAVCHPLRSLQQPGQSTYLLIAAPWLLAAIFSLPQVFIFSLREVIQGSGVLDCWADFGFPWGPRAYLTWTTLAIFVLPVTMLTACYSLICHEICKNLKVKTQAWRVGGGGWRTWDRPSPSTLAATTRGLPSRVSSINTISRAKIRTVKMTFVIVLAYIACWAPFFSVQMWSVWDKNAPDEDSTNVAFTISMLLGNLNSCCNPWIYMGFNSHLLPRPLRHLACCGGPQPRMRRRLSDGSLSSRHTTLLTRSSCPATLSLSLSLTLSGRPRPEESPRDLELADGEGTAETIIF
Description: Vasopressin V1b receptor antagonist assay (FLIPR calcium, CHO-AVPR1b cells). The class given is cell-based. The note with it: antagonism of AVP (EC80) response. How it is done:
The purpose of the assay is to determine the inhibitory effect of synthesized compounds on the Vasopressin V1b receptor. The assay is performed in Chinese Hamster Ovary (CHO) cells expressing the human Arginine Vasopressin Receptor 1b (AVPR1b). Arginine Vasopressin (AVP) evokes an increase in intracellular calcium in CHO-AVPR1b cells which is measured in a fluorescence assay on the FLIPR^TETRA using calcium sensitive dyes. Test compounds are assessed for their ability to affect the magnitude of the response to AVP, with antagonists showing a concentration-dependent reduction in the AVP-mediated fluorescence.
CHO-AVPR1b cells are maintained in routine culture in T175 Flasks at 37° C., 5% CO2. […]
Cells are harvested from T175 flasks when they are 80-90% confluent by first washing the cell monolayer with PBS and then dissociated using trypsin 0.05%/EDTA (3 mL for a T175 Flask). […] To the cell suspension, 10 ml of growth media is added and the cell density determined using the Vi-Cell automated cell counter. […]
At the start of each assay day, the potency of AVP is assessed and an EC80 concentration determined for subsequent compound profiling. […] Changes in fluorescence are monitored for 3 min after both additions on the FLIPR^TETRA using 470-495 nm excitation and 515-575 nm emission wavelengths. […]

T1 sequence (P37288 whole entry): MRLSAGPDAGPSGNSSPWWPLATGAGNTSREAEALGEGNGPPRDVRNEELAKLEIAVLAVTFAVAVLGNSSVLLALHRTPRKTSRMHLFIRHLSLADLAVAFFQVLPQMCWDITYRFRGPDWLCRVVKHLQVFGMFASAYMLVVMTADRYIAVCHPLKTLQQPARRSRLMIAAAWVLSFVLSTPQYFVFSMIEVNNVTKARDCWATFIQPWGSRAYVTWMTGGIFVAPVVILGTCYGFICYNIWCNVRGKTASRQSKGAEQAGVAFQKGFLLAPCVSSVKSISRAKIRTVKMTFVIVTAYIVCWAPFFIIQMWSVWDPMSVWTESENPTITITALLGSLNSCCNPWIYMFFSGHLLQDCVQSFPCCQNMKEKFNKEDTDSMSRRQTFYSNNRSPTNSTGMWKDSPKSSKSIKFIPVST

In the case of `Clc1ccc2c(c1)CN(C1CC1)Cc1nnc(N3CC4(CN(c5ncccn5)C4)C3)n1-2` [Compound No. 225, 8-chloro-5-cyclopropyl-1-(6-(pyrimidin-2-yl)-2,6-diazaspiro[3.3]heptan-2-yl)-5,6-dihydro-4H-benzo[f][1,2,4]triazolo[4,3-a][1,4]diazepine], the IC50 was less than 100 nM in data set [1] and more than 1000 nM in data set [3]. The same molecule gave a Papp A→B in data set [2] of more than 20 ×10⁻⁶ cm/s.

On to `CN1Cc2cc(Cl)ccc2-n2c(nnc2[C@H]2CC[C@H](Oc3ccccn3)CC2)C1` [balovaptan], for which the IC50 is more than 1000 nM in data set [4]; less than 100 nM in data set [1] (antagonism of AVP (EC80) response, read-out: V1a IC50); more than 1000 nM in data set [6]. Moreover, the values for the Papp A→B in data set [5] and in data set [2] were 10 to 20 ×10⁻⁶ cm/s and more than 20 ×10⁻⁶ cm/s, respectively.
